Measured values taken from the supplement of paper PMC5844555.

Experiments:
Assay in all cases: 3' UTR reporter interaction score (median-centred robust z-score of log2 firefly/Renilla activity); higher = less repression of the 3' UTR reporter
Conditions in all cases: HEK293T; 48 h
BRCA2 = tested on: BRCA2
Method in brief: (§1)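 Using DharmaFECT Duo, HEK293T cells (10,000/well, 96-well plates) were co-transfected with 2.5 pmol miRNA mimic, 100 ng firefly luc2P reporter containing the gene's 3' UTR and 20 ng Renilla pRL-TK control, and dual-luciferase activity was read 48 h later. The interaction score is the log firefly/Renilla ratio as a per-plate robust z-score (median, median absolute deviation), median-centred per miRNA, averaged over at least two independent screens; lower, more negative values indicate interaction.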

EZH2 = tested on: EZH2
Method in brief: as §1

FBXW7 = tested on: FBXW7
Method in brief: as §1

HRAS = tested on: HRAS
Method in brief: as §1

MYB = tested on: MYB
Method in brief: as §1

MYCN = tested on: MYCN
Method in brief: as §1

MYC = tested on: MYC
Method in brief: as §1

MYT1L = tested on: MYT1L
Method in brief: as §1

NOTCH1 = tested on: NOTCH1
Method in brief: as §1

PHF6 = tested on: PHF6
Method in brief: as §1

PHOX2B = tested on: PHOX2B
Method in brief: as §1

RB1 = tested on: RB1
Method in brief: as §1

TP53 = tested on: TP53
Method in brief: as §1

ZEB2 = tested on: ZEB2
Method in brief: as §1

Row | Sequence | 3' UTR reporter interaction score (BRCA2) | 3' UTR reporter interaction score (EZH2) | 3' UTR reporter interaction score (FBXW7) | 3' UTR reporter interaction score (HRAS) | 3' UTR reporter interaction score (MYB) | 3' UTR reporter interaction score (MYCN) | 3' UTR reporter interaction score (MYC) | 3' UTR reporter interaction score (MYT1L) | 3' UTR reporter interaction score (NOTCH1) | 3' UTR reporter interaction score (PHF6) | 3' UTR reporter interaction score (PHOX2B) | 3' UTR reporter interaction score (RB1) | 3' UTR reporter interaction score (TP53) | 3' UTR reporter interaction score (ZEB2)
1 | AGACUUCCCAUUUGAAGGUGGC | -0.566 | 0.311 | 0.497 | -0.109 | 0.287 | -2.21 | -0.381 | 0.482 | -0.842 | 1.01 | 0.285 | 0.0148 | -0.0594 | 0.705
2 | UUGGCCACAAUGGGUUAGAAC | 0.035 | -1.06 | -5.44 | -0.0679 | 0.316 | 0.113 | 0.316 | 1.36 | -0.0688 | 1.18 | 0.306 | 0.342 | -0.693 | 0.409
3 | AAAGCGCUUCCCUUCAGAGUGU | -0.304 | -0.357 | 1.07 | -0.152 | 0.692 | -0.904 | -0.758 | -0.332 | 0.385 | 0.134 | 1.41 | -1.21 | 0.336 | -0.49
4 | GCUGCGCUUGGAUUUCGUCCCC | -0.029 | -0.09 | -0.688 | -0.573 | 0.616 | 0.248 | 0.388 | 0.46 | 2.01 | 0.794 | -1.97 | 1.16 | -0.861 | 0.715
5 | AAUCCUUGGAACCUAGGUGUGAGU | 0.643 | 0.207 | -0.342 | 0.739 | 0.656 | 0.204 | 1.33 | -4.11 | -0.594 | 0.0671 | -0.851 | -0.422 | -0.232 | -0.171
6 | UGUGCUUGCUCGUCCCGCCCGCAG | 0.879 | -0.199 | -0.0879 | -0.789 | -0.522 | -0.114 | 0.429 | 0.198 | 0.256 | 1.4 | 0.4 | 0.514 | -0.328 | 0.763
7 | AGGGCCCCCCCUCAAUCCUGU | 0.425 | 0.205 | 0.757 | -0.753 | 0.144 | -0.0892 | -0.761 | 0.617 | -0.584 | 0.378 | 0.177 | 1.06 | -0.172 | 1.65
8 | AGAGGCUGGCCGUGAUGAAUUC | -0.104 | 0.351 | -0.536 | -0.467 | 0.549 | 0.202 | -1.78 | -1.95 | 0.488 | 2.37 | 1.42 | -0.425 | -1.7 | 0.958
9 | AAAGACAUAGGAUAGAGUCACCUC | -0.417 | -0.299 | 1.01 | -0.101 | 0.438 | -0.0475 | -0.142 | -1.82 | -1.33 | -0.548 | 0.476 | -0.442 | 0.557 | 0.2
10 | CAUCCCUUGCAUGGUGGAGGGU | -0.755 | 0.459 | -2.06 | -0.474 | 0.193 | 1.03 | 0.286 | -1.78 | 0.0724 | -0.203 | -0.0949 | -1.51 | 0.105 | -1.03
11 | UUUGUUCGUUCGGCUCGCGUGA | 1.05 | 0.52 | -0.0777 | -0.635 | -0.574 | -0.313 | 0.135 | -0.751 | 0.323 | 1.7 | 0.0504 | -0.809 | 0.275 | 0.164
12 | GUGGCUGCACUCACUUCCUUC | -1.87 | 0.166 | 0.899 | -0.434 | 0.056 | 1.8 | 0.00108 | 1.48 | 0.486 | 1.53 | -0.165 | 1.44 | -1.37 | -0.491
13 | CAGCAGCAAUUCAUGUUUUGAA | 0.886 | -0.709 | -2.64 | -0.93 | -2.05 | -0.622 | -0.0621 | -4.35 | 0.0853 | 2.81 | 1.12 | 0.649 | 0.52 | 0.626
14 | AGGUUGACAUACGUUUCCC | -0.754 | -0.54 | -0.16 | -1.43 | 0.862 | -0.377 | -0.726 | 0.798 | 1.09 | 0.251 | 0.494 | 0.54 | -0.178 | 1.11
15 | UUUCCUAUGCAUAUACUUCUUU | 0.202 | -0.62 | 0.0806 | -0.802 | 0.476 | 0.517 | 0.151 | 1.98 | -2.15 | -0.444 | -0.604 | 0.265 | -0.504 | 0.911
16 | AGCAGCAUUGUACAGGGCUAUGA | 0.461 | -0.463 | -0.997 | -0.255 | -1.03 | 0.0597 | 1.13 | -1.07 | -0.182 | 2.88 | 1.07 | -1.15 | 0.727 | 0.465
17 | UAUUGCUUAAGAAUACGCGUAG | 0.543 | 0.837 | -1.25 | 0.147 | -0.789 | 0.474 | -0.116 | 0.685 | -0.139 | -1.32 | -0.259 | 0.636 | -0.087 | 0.0907
18 | UGUGACUGGUUGACCAGAGGG | 0.687 | 0.91 | -1.25 | -0.321 | -1.86 | -1.12 | 0.219 | -0.108 | 0.462 | 0.602 | 0.929 | -1.22 | 0.803 | 1.2
19 | UCUAGUAAGAGUGGCAGUCG | 0.0816 | -0.108 | 1.23 | -0.21 | 0.506 | -0.229 | -0.209 | -0.214 | 0.0614 | 0.233 | 1.81 | -1.19 | 0.771 | 0.627
